The source of these data is patent US9580390B2, “Indazole compounds as kinase inhibitors and method of treating cancer with same” (University Health Network, priority 2011, dated 2017).

In one experiment the target is T1, human TTK (Homo sapiens, UniProt P33981).
T1 construct: amino terminal GST fusion of full length human TTK; purchased Invitrogen
T1 sequence (P33981 1-857): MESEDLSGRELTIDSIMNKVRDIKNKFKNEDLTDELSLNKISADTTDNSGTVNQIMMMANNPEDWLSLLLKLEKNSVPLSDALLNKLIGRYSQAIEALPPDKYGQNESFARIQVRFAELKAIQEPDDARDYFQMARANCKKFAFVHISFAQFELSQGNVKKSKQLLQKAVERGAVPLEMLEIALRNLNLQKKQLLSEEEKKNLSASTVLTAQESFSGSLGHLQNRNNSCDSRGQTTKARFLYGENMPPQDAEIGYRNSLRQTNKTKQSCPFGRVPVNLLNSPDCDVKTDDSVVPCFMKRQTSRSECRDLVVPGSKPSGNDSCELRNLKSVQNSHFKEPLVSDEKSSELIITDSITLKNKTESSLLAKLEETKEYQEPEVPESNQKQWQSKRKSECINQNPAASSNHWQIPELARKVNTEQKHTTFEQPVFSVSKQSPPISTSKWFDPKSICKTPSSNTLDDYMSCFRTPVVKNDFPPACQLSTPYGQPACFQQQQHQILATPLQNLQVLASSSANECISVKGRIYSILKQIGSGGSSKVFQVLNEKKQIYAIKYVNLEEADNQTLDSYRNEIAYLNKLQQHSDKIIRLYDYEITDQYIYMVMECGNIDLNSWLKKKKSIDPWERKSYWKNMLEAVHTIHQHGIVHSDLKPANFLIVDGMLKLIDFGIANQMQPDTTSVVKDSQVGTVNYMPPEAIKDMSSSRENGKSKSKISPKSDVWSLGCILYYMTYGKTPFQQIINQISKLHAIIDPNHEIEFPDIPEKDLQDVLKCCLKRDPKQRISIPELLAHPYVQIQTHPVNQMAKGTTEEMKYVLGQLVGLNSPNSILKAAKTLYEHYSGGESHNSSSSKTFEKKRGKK
Kind of experiment: TTK inhibition assay (indirect ELISA). In kind it is biochemical. Particulars: read-out: TTK IC50 Range. In general terms: In an ELISA, binding on a coated surface is turned into a signal by an enzyme label.

Experiment [1] deals with colon cancer cells (HCT116). The experiment in a line: Cancer cell line growth inhibition (SRB assay). In kind it is cell-based. To be noted: Homo sapiens, HCT-116, read-out: Cancer Cell Line GI50 Range HCT116.
In experiment [2] the test system is ovarian cancer cells (PA-1). The experiment in a line: Cancer cell line growth inhibition (SRB assay). Particulars: read-out: Cancer Cell Line GI50 Range PA-1. In kind it is cell-based. On the technique in general: In SRB staining, fixed cells bind dye roughly in proportion to their protein.
[3] abbreviates: HCT116 colon cancer cells, SRB assay.
The mark [4] stands for this setting: PA-1 ovarian cancer cells, SRB assay.

Where two headings read alike, the source gives them in different places.

Consider `CC(C)(O)C(=O)N1CCC(Oc2ccc(-c3n[nH]c4ccc(C(=O)N[C@H](c5ccccc5)C5CC5)cc34)cc2)CC1` [Example A381, (S)-N-(cyclopropyl(phenyl)methyl)-3-(4-((1-(2-hydroxy-2-methylpropanoyl)piperidin-4-yl)oxy)phenyl)-1H-indazole-5-carboxamide], for which, at human TTK, the IC50 (commonly the midpoint of a concentration-inhibition curve) is < 100 nM. The GI50 (commonly the concentration that inhibits growth by half) in experiment [1] lay in the range of 100 to 500 nM; in experiment [2] (Homo sapiens, PA-1), 100 to 500 nM.
As to `O=C(NCC1(N2CCOCC2)CCCCC1)c1ccc2[nH]nc(-c3ccc(N4CC5CCC(C4)O5)cc3)c2c1` [Example A483, 3-(4-(8-oxa-3-azabicydo[3.2.1]octan-3-yl)phenyl)-N-((1-morpholinocyclohexyl)methyl)-1H-indazole-5-carboxamide], on human TTK, the IC50 was < 100 nM. The 50% growth inhibitory concentration (GI50) in experiment [1] lay within 100 to 500 nM; in experiment [2] (Homo sapiens, PA-1), 100 to 500 nM.
For the molecule `CN1CCC(Oc2ccc(-c3n[nH]c4ccc(C(=O)NCC5(c6ccccc6)CCOCC5)cc34)cc2)CC1` [Example A473, 3-(4-((1-methylpiperidin-4-yl)oxy)phenyl)-N-((4-phenyltetrahydro-2H-pyran-4-yl)methyl)-1H-indazole-5-carboxamide], at human TTK, the IC50 was < 100 nM. Besides, the concentration for 50% growth inhibition (GI50) in experiment [1] (setting [3]) and in experiment [2] (setting [4]) was 100 to 500 nM in each case.
Consider `CN1CCC(Oc2ccc(-c3n[nH]c4ccc(C(=O)NCC5(c6ccncc6)CCCCC5)cc34)cc2)CC1` [Example A480, 3-(4-((1-methylpiperidin-4-yl)oxy)phenyl)-N-((1-(pyridin-4-yl)cyclohexyl)methyl)-1H-indazole-5-carboxamide], for which, at human TTK, the IC50 was < 100 nM. In addition, the GI50 in experiment [1] (setting [3]) and in experiment [2] (setting [4]) was 100 to 500 nM each time.
Turning to `CN1CCC(Oc2ccc(-c3n[nH]c4ccc(C(=O)NCC5(N6CCOCC6)CCC(F)(F)CC5)cc34)cc2)CC1` [Example A458, N-((4,4-difluoro-1-morpholinocyclohexyl)methyl)-3-(4-((1-methylpiperidin-4-yl)oxy)phenyl)-1H-indazole-5-carboxamide], the half-inhibitory concentration (IC50) on human TTK was < 100 nM. Further, the 50% growth inhibitory concentration (GI50) in experiment [1] (setting [3]) and in experiment [2] (setting [4]) was 100 to 500 nM in each case.
For `CC(C)(O)C1CCN(c2ccc(-c3n[nH]c4ccc(C(=O)N[C@H](c5ccccn5)C5CC5)cc34)cc2)CC1` [Example A351, (S)-N-(cyclopropyl(pyridin-2-yl)methyl)-3-(4-(4-(2-hydroxypropan-2-yl)piperidin-1-yl)phenyl)-1H-indazole-5-carboxamide], the IC50 on human TTK was < 100 nM. Besides, the GI50 in experiment [1] is < 100 nM; in experiment [2] (Homo sapiens, PA-1) it was < 100 nM.
`CN1CCC(Oc2ccc(-c3n[nH]c4ccc(C(=O)NCC5(c6ccsc6)CCCCC5)cc34)cc2)CC1` [Example A472, 3-(4-((1-methylpiperidin-4-yl)oxy)phenyl)-N-((1-(thiophen-3-yl)cyclohexyl)methyl)-1H-indazole-5-carboxamide]: the IC50 at human TTK was < 100 nM. Further, the GI50 in experiment [1] (setting [3]) and in experiment [2] (setting [4]) was 100 to 500 nM throughout.
`O=C(NCC1(OC2CCCC2)CCCCC1)c1ccc2[nH]nc(-c3ccc(N4CCOCC4)cc3)c2c1` [Example A435, N-((1-(cyclopentyloxy)cyclohexyl)methyl)-3-(4-morpholinophenyl)-1H-indazole-5-carboxamide]: the IC50 on human TTK is < 100 nM. Also, the GI50 in experiment [1] was > 500 nM; in experiment [2] (Homo sapiens, PA-1), > 500 nM.
Take `CN1CCN(C(=O)c2cccc(-c3n[nH]c4ccc(NC(=O)C(c5ccsc5)N5CCCC5)cc34)c2)CC1` (stereo not drawn) [Example A96, N-(3-(3-(4-Methylpiperazine-1-carbonyl)phenyl)-1H-indazol-5-yl)-2-(pyrrolidin-1-yl)-2-(thiophen-3-yl)acetamide]: the IC50 on human TTK is > 500 nM. Moreover, the GI50 in experiment [1] (setting [3]) and in experiment [2] (setting [4]) was > 500 nM in each case.
As to `CC(C)(O)CN1CCC(Oc2ccc(-c3n[nH]c4ccc(C(=O)N[C@H](c5ccccn5)C5CCCC5)cc34)cc2)CC1` [Example A231, (S)-N-(cyclopentyl(pyridin-2-yl)methyl)-3-(4-((1-(2-hydroxy-2-methylpropyl)piperidin-4-yl)oxy)phenyl)-1H-indazole-5-carboxamide], the IC50 at human TTK was < 100 nM. Further, the GI50 is < 100 nM in experiment [1] and < 100 nM in experiment [2] (Homo sapiens, PA-1).
